Data published in patent US11912705B2, “Cathinone derivatives, pharmaceutical formulations, and methods” (The Corporation of Mercer University, priority 2020, dated 2024).

Assays:
Dopamine transporter (h) = target: T1, Dopamine transporter (h) (Homo sapiens, UniProt Q01959); assay: Dopamine transporter (h) (antagonist radioligand) competition binding; conditions: for nH: Dopamine transporter (h) (antagonist radioligand)
T1 construct: Eurofins/Cerep (contract testing)
Method: (§1) Compounds (1) and (2) were tested at several concentrations for IC50 or EC50 determination at target receptors. […] For antagonist assays, Kb affinity values were calculated from IC50 values using GraphPad Prism 9 (San Diego, Calif. USA).

[1] = target: T2, Norepinephrine transporter (h) (Homo sapiens, UniProt P23975); assay: Norepinephrine transporter (h) (antagonist radioligand) competition binding; conditions: for nH: Norepinephrine transporter (h) (antagonist radioligand)
T2 construct: Eurofins/Cerep (contract testing)
T2 sequence (P23975 whole entry): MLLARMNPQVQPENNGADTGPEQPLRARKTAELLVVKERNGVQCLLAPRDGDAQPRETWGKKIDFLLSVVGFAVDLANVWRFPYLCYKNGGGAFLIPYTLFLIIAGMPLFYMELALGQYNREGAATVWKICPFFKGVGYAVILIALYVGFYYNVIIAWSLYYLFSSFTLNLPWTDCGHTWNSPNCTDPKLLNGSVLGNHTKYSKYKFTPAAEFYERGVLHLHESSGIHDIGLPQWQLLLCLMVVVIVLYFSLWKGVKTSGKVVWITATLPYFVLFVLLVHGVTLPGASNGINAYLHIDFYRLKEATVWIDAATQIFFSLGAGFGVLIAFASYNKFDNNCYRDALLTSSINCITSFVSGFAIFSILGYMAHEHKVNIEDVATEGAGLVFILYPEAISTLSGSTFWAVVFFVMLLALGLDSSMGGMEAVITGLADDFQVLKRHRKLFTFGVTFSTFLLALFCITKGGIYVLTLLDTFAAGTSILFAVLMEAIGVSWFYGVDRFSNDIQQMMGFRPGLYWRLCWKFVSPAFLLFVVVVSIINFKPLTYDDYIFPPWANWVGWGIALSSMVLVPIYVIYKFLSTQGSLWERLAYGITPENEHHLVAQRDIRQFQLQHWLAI
Method: (§2) For antagonist assays, Kb affinity values were calculated from IC50 values using GraphPad Prism 9 (San Diego, Calif. USA).

5-HT transporter (h) = target: T3, 5-HT transporter (h) (Homo sapiens, UniProt P31645); assay: Serotonin transporter (antagonist radioligand) competition binding; conditions: for Affinity (Ki) SERT: Eurofins/Cerep, N.B. denotes no binding at 100 μM
T3 construct: Eurofins/Cerep (contract testing)
T3 sequence (P31645 whole entry): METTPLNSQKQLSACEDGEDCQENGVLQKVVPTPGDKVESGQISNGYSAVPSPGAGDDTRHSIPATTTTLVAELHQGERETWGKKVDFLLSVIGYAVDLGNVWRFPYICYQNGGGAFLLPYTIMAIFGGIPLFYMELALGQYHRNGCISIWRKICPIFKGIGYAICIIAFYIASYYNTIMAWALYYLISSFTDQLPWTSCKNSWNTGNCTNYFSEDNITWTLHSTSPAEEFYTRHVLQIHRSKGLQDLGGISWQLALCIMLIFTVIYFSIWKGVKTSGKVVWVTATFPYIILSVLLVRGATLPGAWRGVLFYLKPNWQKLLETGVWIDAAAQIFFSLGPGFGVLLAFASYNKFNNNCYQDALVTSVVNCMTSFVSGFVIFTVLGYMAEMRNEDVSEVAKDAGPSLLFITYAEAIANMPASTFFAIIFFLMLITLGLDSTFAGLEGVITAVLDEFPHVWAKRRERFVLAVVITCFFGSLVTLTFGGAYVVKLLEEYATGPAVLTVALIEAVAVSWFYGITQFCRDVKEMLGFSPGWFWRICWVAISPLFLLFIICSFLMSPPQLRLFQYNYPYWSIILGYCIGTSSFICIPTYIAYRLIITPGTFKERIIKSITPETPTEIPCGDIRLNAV
Method: as §1

Dopamine transporter = target: T4, Dopamine transporter (Homo sapiens, UniProt Q01959); assay: Dopamine transporter uptake (h); assay type: cell-based
T4 construct: Eurofins/Cerep (contract testing)
T4 sequence (Q01959 whole entry): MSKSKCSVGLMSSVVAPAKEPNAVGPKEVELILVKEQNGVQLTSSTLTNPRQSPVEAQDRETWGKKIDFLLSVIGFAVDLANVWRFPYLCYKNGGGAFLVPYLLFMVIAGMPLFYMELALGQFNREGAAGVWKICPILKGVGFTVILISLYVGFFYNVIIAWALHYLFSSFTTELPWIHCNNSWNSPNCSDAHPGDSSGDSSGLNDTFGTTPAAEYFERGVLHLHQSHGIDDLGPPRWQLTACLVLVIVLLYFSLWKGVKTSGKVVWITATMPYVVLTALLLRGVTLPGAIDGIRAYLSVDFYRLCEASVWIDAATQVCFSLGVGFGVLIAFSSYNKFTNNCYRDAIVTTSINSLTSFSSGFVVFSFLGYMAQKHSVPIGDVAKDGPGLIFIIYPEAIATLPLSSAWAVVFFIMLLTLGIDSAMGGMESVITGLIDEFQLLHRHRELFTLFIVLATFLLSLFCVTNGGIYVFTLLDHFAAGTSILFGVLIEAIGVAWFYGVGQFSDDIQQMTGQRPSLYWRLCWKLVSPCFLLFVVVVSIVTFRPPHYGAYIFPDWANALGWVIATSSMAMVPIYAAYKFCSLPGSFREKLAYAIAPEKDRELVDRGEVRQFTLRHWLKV
Method: as §1

[2] = target: T5, Norepinephrine transporter (Homo sapiens, UniProt P23975); assay: Norepinephrine transporter uptake (h); assay type: cell-based
T5 construct: Eurofins/Cerep (contract testing)
T5 sequence (P23975 whole entry): as the sequence (P23975 whole entry) above
Method: as §2

Serotonin transporter = target: T6, Serotonin transporter (Rattus norvegicus, UniProt P31652); assay: Serotonin transporter uptake (rat brain synaptosomes); assay type: biochemical
T6 construct: tissue Eurofins/Cerep (contract testing); host or cells: rat brain synaptosomes (per the earlier reading)
T6 sequence (P31652 whole entry): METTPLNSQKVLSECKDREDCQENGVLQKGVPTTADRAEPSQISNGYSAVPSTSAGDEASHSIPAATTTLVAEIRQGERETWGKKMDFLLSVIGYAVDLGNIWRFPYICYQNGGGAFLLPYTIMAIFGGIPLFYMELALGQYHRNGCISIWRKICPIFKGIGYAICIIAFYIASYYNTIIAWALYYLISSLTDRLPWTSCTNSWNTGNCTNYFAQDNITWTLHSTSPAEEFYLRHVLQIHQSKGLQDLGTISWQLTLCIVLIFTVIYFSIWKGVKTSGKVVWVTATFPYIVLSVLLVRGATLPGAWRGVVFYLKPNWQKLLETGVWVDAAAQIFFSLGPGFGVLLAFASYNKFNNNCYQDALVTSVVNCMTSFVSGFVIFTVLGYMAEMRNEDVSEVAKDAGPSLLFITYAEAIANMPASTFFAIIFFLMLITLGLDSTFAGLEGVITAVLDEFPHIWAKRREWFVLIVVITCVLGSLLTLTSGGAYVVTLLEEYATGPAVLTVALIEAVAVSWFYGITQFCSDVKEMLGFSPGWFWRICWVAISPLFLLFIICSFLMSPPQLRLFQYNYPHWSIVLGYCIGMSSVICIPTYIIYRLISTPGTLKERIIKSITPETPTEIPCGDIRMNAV
Method: as §1

[3] = tested on: mice on the FVB background; assay: Defecation (fecal pellets) / gastrointestinal motility in mice; assay type: in vivo; conditions: 2.8 mg/kg, s.c.
Method: Since functional inhibition of neurotransmitter transporters, particularly DAT, is classically known to cause psychomotor stimulation, the ability of Compound (1) to induce this effect in mice was assessed, directly comparing results to α-PHP, a pyrrolidine-substituted analog of Compound (1). Adult male and female mice on the FVB background were injected subcutaneously and then immediately placed inside of an open field chamber, where their activity was recorded automatically for 20-min by an overhead camera connected to a PC running EthoVision XT software. […] Data are means (±SEM).
Consistent with pre-synaptic M2R antagonist activity, also observed was an increase in defecation caused by Compound (1) (FIG. 4). […] Regarding FIG. 4, Compound (1) (2.8 mg/kg, s.c.) increased gastrointestinal motility compared to vehicle and α-PHP (2.8 mg/kg, s.c.) treated mice. Scatter dot plots with means (±SEMs).

M2Rs = target: T7, M2Rs (Homo sapiens, UniProt P08172); assay: M2R β-arrestin recruitment; assay type: cell-based
T7 sequence (P08172 1-466): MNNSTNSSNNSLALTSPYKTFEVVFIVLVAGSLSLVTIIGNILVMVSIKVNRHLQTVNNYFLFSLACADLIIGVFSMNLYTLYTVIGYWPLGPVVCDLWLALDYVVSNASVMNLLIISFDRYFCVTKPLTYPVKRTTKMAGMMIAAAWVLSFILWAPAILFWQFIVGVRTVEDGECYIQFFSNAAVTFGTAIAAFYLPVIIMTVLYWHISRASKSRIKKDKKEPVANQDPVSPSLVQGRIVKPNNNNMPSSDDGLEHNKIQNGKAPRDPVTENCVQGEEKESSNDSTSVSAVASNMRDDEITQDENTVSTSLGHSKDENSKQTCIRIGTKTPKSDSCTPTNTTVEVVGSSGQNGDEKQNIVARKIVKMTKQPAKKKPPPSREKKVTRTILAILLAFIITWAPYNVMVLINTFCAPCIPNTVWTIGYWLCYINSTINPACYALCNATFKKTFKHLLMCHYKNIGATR
Description: Data are shown as normalized means (±SEM) of two, independent determinations, with oxotremorine tested at each concentration in duplicate and α-PHP tested in quadruplicate. [*Basal signaling is defined as the normalized RLU emitted by untreated cells.]

human M1Rs = target: T8, human M1Rs (Homo sapiens, UniProt P11229); assay: M1R phosphoinositide hydrolysis (IP-One HTRF); assay type: cell-based
T8 construct: host or cells: HEK293 (CRL-1573, ATCC), transient
T8 sequence (P11229 1-460): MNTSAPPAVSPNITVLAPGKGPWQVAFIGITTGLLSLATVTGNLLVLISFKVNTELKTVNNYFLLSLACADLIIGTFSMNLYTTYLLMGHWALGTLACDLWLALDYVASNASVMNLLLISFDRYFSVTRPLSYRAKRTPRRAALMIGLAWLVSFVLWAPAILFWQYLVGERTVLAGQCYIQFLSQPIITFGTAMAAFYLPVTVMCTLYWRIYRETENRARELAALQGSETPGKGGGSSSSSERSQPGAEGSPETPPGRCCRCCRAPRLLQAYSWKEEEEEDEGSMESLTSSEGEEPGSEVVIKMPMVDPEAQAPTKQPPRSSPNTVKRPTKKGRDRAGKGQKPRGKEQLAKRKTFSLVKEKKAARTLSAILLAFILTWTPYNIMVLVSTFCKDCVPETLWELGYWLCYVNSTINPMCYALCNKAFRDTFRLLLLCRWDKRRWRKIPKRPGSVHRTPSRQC

human DAT [4] = target: T9, human DAT (Homo sapiens, UniProt Q01959); conditions: from Eshleman et al. 2017, cited from earlier work
T9 sequence (Q01959 whole entry): as the sequence (Q01959 whole entry) above

human NET [5] = target: T10, human NET (Homo sapiens, UniProt P23975); conditions: from Eshleman et al. 2017, cited from earlier work
T10 sequence (P23975 whole entry): as the sequence (P23975 whole entry) above

human SERT [6] = target: T11, human SERT (Homo sapiens, UniProt P31645); conditions: read-out: Affinity (Ki) SERT; from Eshleman et al. 2017; cited from earlier work
T11 sequence (P31645 whole entry): as the sequence (P31645 whole entry) above

human DAT [7] = target: T9, human DAT; conditions: read-out: Uptake Inhibition (IC50) DAT; from Eshleman et al. 2017; cited from earlier work
human NET [8] = target: T10, human NET; conditions: read-out: Uptake Inhibition (IC50) NET; from Eshleman et al. 2017; cited from earlier work
human SERT [9] = target: T11, human SERT; conditions: read-out: Uptake Inhibition (IC50) SERT; from Eshleman et al. 2017; cited from earlier work

T1 sequence (Q01959 whole entry): as the sequence (Q01959 whole entry) above

Row | SMILES | IC50 (Dopamine transporter (h)) | Ki (Dopamine transporter (h)) | nH (Dopamine transporter (h)) | IC50 [1] | Ki [1] | nH [1] | IC50 (5-HT transporter (h)) | Affinity (Ki) SERT (5-HT transporter (h)) | IC50 (Dopamine transporter) | IC50 [2] | IC50 (Serotonin transporter) | number of fecal pellets (defecation, gastrointestinal motility) [3] | further results
1 | CCCCC(C(=O)c1ccccc1)N1CCCCC1 (stereo not drawn) [Compound (1), 1-phenyl-2-(piperidin-1-yl)hexan-1-one] | 72 nM | 38 nM | 1 | 8700 nM | 6500 nM | 1.6 | > 100000 nM | neither compound exhibiting demonstrable binding at SERT | 47 nM | 1300 nM | 37000 nM | significantly higher than both vehicle (p<0.0001) and α-PHP treated mice | Affinity (Ki) SERT (5-HT transporter (h); listed as Compound 1): N.B.
2 | CCCCC(C(=O)c1ccccc1)N1CCCCCC1 (stereo not drawn) [Compound (2), 2-(azepan-1-yl)-1-phenylhexan-1-one] | 100 nM | 54 nM | 0.9 | 13000 nM | 9800 nM | 0.9 | > 100000 nM | neither compound exhibiting demonstrable binding at SERT | 70 nM | 1100 nM | 12000 nM |  | Affinity (Ki) SERT (5-HT transporter (h); listed as Compound 2): N.B.
3 | CCCCC(C(=O)c1ccccc1)N1CCCC1 (stereo not drawn) [α-PHP, 1-phenyl-2-(pyrrolidin-1-yl)hexan-1-one] |  |  |  |  |  |  |  |  |  |  |  | no significant difference was observed between the vehicle and α-PHP groups | Kb (M2Rs): 501 nM; Kb (human M1Rs): 1380 nM; affinity at DAT, fold higher than α-PPP (human DAT [4]): 81 fold; Ki (human DAT [4]; read-out: Affinity (Ki) DAT): 16 nM; affinity at NET, fold higher than α-PPP (human NET [5]): 6 fold; Ki (human NET [5]; read-out: Affinity (Ki) NET): 300 nM; Ki (human SERT [6]): 33000 nM; IC50 (human DAT [7]): 22 nM; IC50 (human NET [8]): 30 nM; IC50 (human SERT [9]): 40000 nM
